Reference: the OPERA property sets (Mansouri et al. 2018)
Peptide text beside a SMILES is read from it. * marks the point of attachment. NHtBu = CC(C)(C)N*

Row | SMILES | logP
1 | Clc1ccccc1Cl | 3.43
2 | CCOc1ccc([N+](=O)[O-])cc1 | 2.53
3 | Oc1ccc(Cn2cc[nH]c2=S)cc1 | 1.02
4 | O=C1CCCO1 | -0.64
5 | C=CCOc1ccccc1C(=C)n1ccnc1 | 2.79
6 | COC(=O)CCC(NC(=O)c1ccc(N(C)Cc2cnc3nc(N)nc(N)c3n2)cc1)C(=O)OC (configuration not stated) | 0.54
7 | CC(=O)NC(C)C(=O)NC(CC(=O)O)C(=O)NC(C)C(=O)NC(C)(C)C (stereo not drawn) (Ac-Ala-Asp-Ala-NHtBu; configuration not given here) | -0.74
8 | CN1C(=O)C(=O)c2ccccc21 | 0.58
9 | CNP(=O)(OC)Oc1ccccc1Cl (configuration not stated) | 1.61
10 | Cc1cccc(Cl)c1 | 3.28
11 | Cc1ccc2ncccc2c1 | 2.57
12 | c1cncnc1 | -0.4
13 | C1=CC=CC=CC=C1 | 3.08
14 | CCC(C)NC(=O)C=C(SC)c1ccccc1 (configuration not stated) | 3.03
15 | c1ccc(-c2nc3ccccc3[nH]2)cc1 | 3.24
16 | OCc1cccc(Cl)c1 | 1.94
17 | O=S1(=O)OC(c2ccc(O)cc2)(c2ccc(O)cc2)c2ccccc21 | 3.02
18 | Clc1cccc(-c2ccccc2)c1 | 4.58
19 | COc1ccc2cc(C(C)C(=O)OCC(=O)N(C)CCO)ccc2c1 (configuration not stated) | 2.01
20 | CN(C)C(=O)OCc1ccc(Cl)cc1 | 2.93
21 | CCCCC1OC(=O)c2ccccc21 (configuration not stated) | 2.8
22 | CCNc1nc(NC(C)(C)C)nc(SC)n1 | 3.74
23 | C[C@@H]1C[C@@H]([C@H](O)CC2CC(=O)NC(=O)C2)C(=O)[C@@H](C)C1 | 0.55

Row | SMILES | logP
24 | CCC(C)NC(=O)C=Cc1ccccc1 (configuration not stated) | 2.85
25 | COc1cccc(NC(=O)N(CCCl)N=O)c1 | 2.66
26 | CNC(=O)c1[nH]nc(C)c1[N+](=O)[O-] | -0.23
27 | CC(=NNC(=S)NNC(=S)N(C)C)c1ccccn1 | 1.25
28 | N#CC(C#N)=NNc1ccccc1 | 2.67
29 | O=C(O)c1ccccc1O | 2.26
30 | O=NN1CCCCCC1 | 0.92
31 | Oc1c(F)cc(Cn2cc[nH]c2=S)cc1F | 1.08
32 | O=C(O)CN1CCN(C(=O)Cn2c(=O)sc3ccc(Cl)cc32)CC1 | -0.71
33 | O=C(O)COc1cccc(O)c1 | 0.76
34 | CNC(=S)NCCCCc1cnc[nH]1 | 0.39
35 | CN(C(N)=O)c1ccccc1 | 0.42
36 | O=P1(NCCCl)OCCCN1CCCl (configuration not stated) | 0.86
37 | CCCCCC(=O)NN | 0.48
38 | CCn1nc2ccccc2n1 | 2.1
39 | CC(C#N)c1ncc([N+](=O)[O-])[nH]1 (configuration not stated) | -0.07
40 | CC(=O)c1ccc(N)cc1 | 0.83
41 | C=CCC1(CC(=C)Br)C(=O)NC(=O)NC1=O | 1.37
42 | O=C(O)c1cc([N+](=O)[O-])cc([N+](=O)[O-])c1 | 1.55
43 | c1ccc(Nc2ccc3ccccc3c2)cc1 | 4.38
44 | CN(C)C(=O)Nc1ccc([N+](=O)[O-])cc1 | 1.51
45 | COC(=O)CC(C)C | 1.82
46 | CCOC(=O)C(=Cc1ccc(Br)cc1)C(=O)OCC | 4.02

Row | SMILES | logP
47 | CCC(C)N(CC(O)COc1ccccc1)CC(O)COc1ccccc1 (configuration not stated) | 3.46
48 | CCCCCC(C)O (configuration not stated) | 2.31
49 | CC(=O)Nc1cccc(O)c1 | 0.73
50 | O=C(O)Cc1cccc(O)c1 | 0.85
51 | CC(=O)Cc1ccccc1 | 1.44
52 | C=CC | 1.77
53 | NC(=O)CCc1ccncc1 | -0.25
54 | CON(C)C(=O)Nc1ccc(C=C(C#N)C#N)cc1 | 2.19
55 | O=[N+]([O-])c1ccc2cccnc2c1 | 1.82
56 | CC1=C(N2CC2)C(=O)C(CCOC(N)=O)=C(N2CC2)C1=O | 0.16
57 | CC(C)C(C(=O)OC(C#N)c1cccc(Oc2ccccc2)c1)c1ccc(Cl)cc1 (configuration not stated) | 6.2
58 | O=[N+]([O-])C=Cc1ccsc1 | 1.94
59 | Nc1ccc(C(=O)O)c(I)c1 | 1.65
60 | CCC(CC)C(=O)NC(N)=O | 0.91
61 | CCCCOCCCC | 3.21
62 | COc1ccccc1NS(=O)(=O)c1ccc(N)cc1 | 1.56
63 | CC(Cl)C(=O)NC(CO)C(O)c1ccc([N+](=O)[O-])cc1 (configuration not stated) | 0.98
64 | O=C(Nc1ncnc2c1ncn2[C@H]1C[C@H](O)[C@@H](CO)O1)c1ccccc1 | 0.22
65 | O=S(=O)(CF)Nc1ccc(Cl)cc1 | 2.25
66 | CNC(=O)Oc1ccc(SC)c(C)c1 | 2.47
67 | CCCNc1nc(NC(C)C)nc(SC(F)F)n1 | 4.23
68 | CO[C@H]1[C@@H](O)C[C@H](O[C@H]2[C@@H](O)C[C@H](O[C@H]3[C@@H](O)C[C@H](O[C@H]4CC[C@@]5(C)[C@H](CC[C@@H]6[C@@H]5C[C@@H](O)[C@]5(C)[C@@H](C7=CC(=O)OC7)CC[C@]65O)C4)O[C@@H]3C)O[C@@H]2C)O[C@@H]1C | 1.8
69 | FC(F)(F)c1ccc2cccnc2c1 | 3.02

Row | SMILES | logP
70 | O=C(OC(=O)c1ccccc1)c1ccccc1 | 2.26
71 | O=C(O)CCCCCN1C(=O)C=CC1=O | 1.15
72 | CCC(=O)OCC(=O)[C@@]1(OC(=O)CC)[C@@H](C)C[C@H]2[C@@H]3CCC4=CC(=O)C=C[C@]4(C)[C@@]3(F)[C@@H](O)C[C@@]21C | 4.07
73 | CNS(=O)(=O)c1ccc(N)cc1 | -0.01
74 | CC(=O)c1cccnc1 | 0.43
75 | NC(Cc1ccc(F)cc1)C(=O)O (racemic) | -1.89
76 | CN(C)C(=O)OCc1ccc(C#N)cc1 | 1.67
77 | CN(C)C(N(C)C)=S(I)c1ccccc1I (configuration not stated) | 0.3
78 | c1ccc(N2CCCCC2)cc1 | 2.98
79 | CS(C)(=O)=O | -1.41
80 | O=[N+]([O-])c1ncn(CC(O)CF)n1 (configuration not stated) | -0.59
81 | N#CCCc1ccccc1 | 1.72
82 | O=C(c1ccccc1)c1cccc(NS(=O)(=O)C(F)F)c1 | 2.86
83 | CN(c1ccccc1)c1ccccc1 | 3.9
84 | NC12CC3CC(CC(C3)C1)C2 | 2.44
85 | COC(OC)OC | 0.25
86 | CCOC(=O)c1ccccn1 | 0.87
87 | Cc1cc(Cl)ccc1N=CN(C)C | 2.89
88 | Cc1cnccn1 | 0.21
89 | CCOP(=S)(OCC)Oc1ccc(Cl)cc1Cl | 5.14
90 | C1OC1CN1CCN(CC2CO2)CC1 (configuration not stated) | -0.84
91 | O=C(NC(CO)C(O)c1ccc(Br)cc1)C(Cl)Cl (configuration not stated) | 1.87
92 | O=C1c2ccccc2C(=O)N1SC(Cl)(Cl)Cl | 2.85

Row | SMILES | logP
93 | CCN(C)N=Nc1ccc(C(N)=O)cc1 | 1.69
94 | CCOC(=O)c1c[nH]cc1C | 2.14
95 | Cc1c(Cl)cccc1Nc1ccccc1CC(=O)O | 4.64
96 | Cc1cc(C)c2c(c1)C(c1ccccc1)=NCC(=O)N2 | 2.94
97 | C=CCNCCC | 1.33
98 | FN(F)C(c1ccccc1)(c1ccccc1)c1ccccc1 | 3.73
99 | COc1ccc(C(=O)N(C)C)cc1 | 0.96
100 | Nc1ccc(-c2ccc(N)cc2)cc1 | 1.34
101 | O=C(O)Cc1cccc(I)c1 | 2.62
102 | CCCCCCOc1ccc(S(N)(=O)=O)cc1 | 2.93
103 | O=C(Cn1cnc([N+](=O)[O-])n1)NCCO | -1.59
104 | NCCCNC(=O)c1ccccc1 | 0.3
105 | C[C@H](N[C@H](CCc1ccccc1)C(=O)O)C(=O)N1CCC[C@H]1C(=O)O | -0.74
106 | CN(CC(F)(F)F)N=Nc1ccc(C(N)=O)cc1 | 1.86
107 | CC1CC2OC(=O)C3(C)C2C(OC3(C)O)C2(C)C(=O)C=CC12 (configuration not stated) | 0.3
108 | CC(=O)N(C)Nc1ccccc1 | 1.31
109 | CCN(CC)N=O | 0.48
110 | NC(=O)c1cccc(Br)c1 | 1.65
111 | CC(C)=CC1C(C(=O)OCc2ccccc2)C1(C)C (configuration not stated) | 5.49
112 | CCN(CC)C(=O)SCc1ccc(Cl)cc1 | 3.4
